Experiments:
[1] = test system: CCI rats (sciatic nerve-induced neuropathic pain); conditions: single dose p.o.; at less than about 100 micromoles/kg, for example less than about 30 micromoles/kg
From the text: Food and water were available ad libitum at all times except during testing. […]
The von Frey filaments were presented perpendicularly to the plantar surface of the selected hind paw, and then held in this position for approximately 8 seconds with enough force to cause a slight bend in the filament. Positive responses included an abrupt withdrawal of the hind paw from the stimulus, or flinching behavior immediately following removal of the stimulus.

[2] = test system: osteoarthritic rats (MIA-induced osteoarthritis pain); test: Monoiodoacetate-induced osteoarthritis (MIA-OA) pain model, hind limb grip force; assay type: in vivo, Sprague-Dawley rats; conditions: for percent return of grip force to normalcy: n=6
Procedure: Pain behavior was assessed by measurement of hind limb grip force (GF) in adult osteoarthritic rats. Unilateral knee joint osteoarthritis was induced in rats by a single intraarticular (i.a.) injection of sodium monoiodoacetate (MIA) (Sigma, St. Louis, Mo.) (3 mg in 0.05 ml sterile isotonic saline) into the joint cavity using a 26 G needle under light (2-4%) isoflurane anesthesia, as previously described ([…]., Honore, P., 2009, Pharmacological modulation of movement-evoked pain in a rat model, Eur. J. […] Following injection, the animals were allowed to recover from the effects of anesthesia (usually 5-10 minutes) before returning them to their home cages. Grip strength was assessed in osteoarthritic rats as a measure of activity-induced pain. Measurements of peak hind limb grip force were conducted by recording the maximum compressive force (CFmax), in grams of force, exerted on the hind limb strain gauge, in a commercially available grip force measurement system (Columbus Instruments, Columbus, Ohio). During testing, each rat was gently restrained and allowed to grasp the wire mesh frame (10×12 cm) attached to the strain gauge. The animal was then moved in a rostral-to-caudal direction until the grip was broken. Each rat was sequentially tested twice at an approximately two-three minute interval to obtain a raw mean grip force (CFmax in gram force units). In order to account for the body weight differences among the rats, this raw mean grip force was converted to a maximum hind limb compressive force for each animal by dividing the CFmax by the body weight of the rat in kg [(CFmax in gram force)/kg body weight]. […] Compound A was administered in 10% DMSO/HBC vehicle orally at a volume of 2 ml/kg, 60 minutes before testing. The NSAID diclofenac (30 mg/kg, p.o.) was given 60 minutes before data collection and used as a positive control. A group of age-matched naïve (not injected with MIA) animals was added as a comparator to the drug-dosed groups. The vehicle control response for each group of MIA-treated animals was defined as the 0% response (0% effect), whereas the naïve control group was defined as the normal response and as 100% effect. The % effects for each dose group was expressed as % return of response to normalcy, compared to the naïve group. That is, the % effect=(Treatment CFmax-Vehicle CFmax)[…]]×100). Higher % effect numbers indicate increased relief from the pain in the model, with 100% indicating a return to the level of response seen in normal (non-osteoarthritic) animals. The data obtained from various dose groups for the test compound were compared with data from the naïve group.

c1cc2cc(-c3ccc(O[C@H]4C[C@H]5CC[C@@H](C4)N5)cn3)ccc2[nH]1 [Compound A, 5-(5-((1R,3r,5S)-8-azabicyclo[3.2.1]octan-3-yloxy)pyridine-2-yl)-1H-indole]
change in Paw Withdrawal Threshold versus vehicle [1]: statistically significant change | percent return of grip force to normalcy ([2]; 3 μmol/kg p.o., 60 minutes before data collection, MIA rats): approximately 39% | percent return of grip force to normalcy ([2]; 10 μmol/kg p.o., 60 minutes before data collection, MIA rats): ~60% | percent return of grip force to normalcy ([2]; 30 μmol/kg p.o., 60 minutes before data collection, MIA rats): ~73% | ED50 (return of grip force to normalcy) ([2]; p.o., 60 minutes before testing, MIA rats): approximately 6 μmol/kg

O=C(O)Cc1ccccc1Nc1c(Cl)cccc1Cl [diclofenac, reference compound]
% Effect (return of grip force to normalcy) ([2]; 30 mg/kg p.o., 60 minutes before data collection, positive control): about 69%

— patent publication US8940762B2, “Methods for treating pain” (AbbVie Inc., priority 2010, dated 2015)
